{"source": "paper PMC9600515", "about": "“Dual Regulatory Role Exerted by Cyclic Dimeric GMP To Control FsnR-Mediated Bacterial Swimming” (mBio, 2022)", "key": {"FsnR": {"target": "T1, FsnR (Stenotrophomonas maltophilia, UniProt B2FQU0)", "T1 construct": "gene Smlt2299; full length, recombinant from E. coli BL21(DE3), C-terminal His6 or GST tag (GST cleaved on column); Red NHS labelled for MST", "T1 sequence (B2FQU0 entry or part of it)": "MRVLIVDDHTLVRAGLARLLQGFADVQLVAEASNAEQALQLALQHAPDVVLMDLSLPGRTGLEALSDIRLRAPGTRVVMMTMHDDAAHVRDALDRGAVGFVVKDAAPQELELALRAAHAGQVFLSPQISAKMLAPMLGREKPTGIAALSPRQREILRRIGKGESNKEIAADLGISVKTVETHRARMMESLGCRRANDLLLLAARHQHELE", "experiment": "microscale thermophoresis (MST)", "type": "binding", "details": "PBS buffer; labelled protein"}, "RavS": {"target": "T2, RavS (Stenotrophomonas maltophilia, UniProt B2FQW5)", "T2 construct": "gene Smlt2324; recombinant from E. coli BL21(DE3), C-terminal His6 or GST tag (GST cleaved); phosphorylated His503; labelled for MST", "T2 sequence (B2FQW5 entry or part of it)": "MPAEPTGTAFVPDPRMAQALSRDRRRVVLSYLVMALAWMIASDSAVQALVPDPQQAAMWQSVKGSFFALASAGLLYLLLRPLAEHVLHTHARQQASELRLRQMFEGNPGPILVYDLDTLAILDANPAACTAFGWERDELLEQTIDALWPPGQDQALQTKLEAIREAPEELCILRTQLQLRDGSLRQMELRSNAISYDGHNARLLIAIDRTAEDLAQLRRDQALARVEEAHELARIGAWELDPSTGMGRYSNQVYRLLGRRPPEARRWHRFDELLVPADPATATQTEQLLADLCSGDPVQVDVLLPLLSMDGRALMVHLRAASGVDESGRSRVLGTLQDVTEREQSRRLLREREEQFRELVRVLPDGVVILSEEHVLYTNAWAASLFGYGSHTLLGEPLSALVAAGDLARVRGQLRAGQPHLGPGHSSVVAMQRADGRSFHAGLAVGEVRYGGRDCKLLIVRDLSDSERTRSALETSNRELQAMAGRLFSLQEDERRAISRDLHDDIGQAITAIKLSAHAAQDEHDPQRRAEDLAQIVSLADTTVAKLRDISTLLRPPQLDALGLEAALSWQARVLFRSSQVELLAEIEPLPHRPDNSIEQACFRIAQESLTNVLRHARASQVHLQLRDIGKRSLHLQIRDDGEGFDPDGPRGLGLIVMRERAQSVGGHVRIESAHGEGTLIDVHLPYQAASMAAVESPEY", "experiment": "microscale thermophoresis (MST)", "type": "binding", "details": "PBS buffer; 20 nM fluorescein-labeled RavS"}}}
{"smiles": "Nc1nc2c(ncn2[C@@H]2O[C@@H]3CO[P@](=O)(O)O[C@H]4[C@@H](O)[C@H](n5cnc6c(=O)[nH]c(N)nc65)O[C@@H]4CO[P@](=O)(O)O[C@H]3[C@H]2O)c(=O)[nH]1", "note": "[c-di-GMP]", "values": [{"measurement": "Kd", "setting": "FsnR", "value": "3430 ± 1360", "unit": "nM"}, {"measurement": "Kd", "setting": "RavS", "value": "1480 ± 360", "unit": "nM"}]}
